# Test results as given in patent US20210267865A1, “COSMETIC COMPOSITION FOR INCREASING SKIN EXFOLIATION” (LG HOUSEHOLD & HEALTH CARE LTD., priority 2018, published 2021).
# Columns and labels:
# pig skin = assay: Evaluation of pig skin exfoliation (number of exfoliated cells from biopsied pig skin); conditions: for activity versus gluconolactone (PHA) or lactic acid (AHA) at pH 4: neutral or weakly acidic pH of 5-7
# Description: The exfoliation evaluation method described in Journal of the European Academy of Dermatology and Venereology, 2014, 28, 415-423 was used. Specifically, pig skin was biopsied and a sample to be tested was added. Then, the number of exfoliated cells was measured with a cell counter and was plotted with water as a negative control group (0%) and 10% gluconolactone at pH 4 as a positive control group (100%).
# [1] = test system: stratum corneum of inside forearm and upper arm; assay: Evaluation of exfoliation turnover enhancement by DHA staining (human skin test); assay type: in vivo; conditions: for turnover time (TT100): polyol humectant content 10% or 50%, non-application group 20 days
# Description: DHA staining for evaluating the speed of exfoliation turnover was conducted for 10 healthy males aged between 20 and 40 years according to the method described in Dermatology 1993, 186, 133-137. Prior to sample application, the color of the inside forearm and upper arm of the test subjects was measured with Chroma Meter. Then, a 1.5×1.5 cm gauze soaked with about 0.4 mL of 10% dihydroxyacetone (DHA) was attached to the inside forearm and upper arm for 8 hours. 48 hours later, the color of the part that was pigmented brown by DHA was compared with that before the sample application. Subsequently, while applying the sample twice a day, the time required to return to the original skin color was measured by measuring the skin color every day with Chroma Meter. TT (turnover time) 100% means the time required for the existing stratum corneum to be completely (100%) replaced with a new stratum corneum. In this experiment, the time required for the skin pigmented by DHA corneum to completely return to the original color was compared by regression analysis. The result was compared with that of the negative control group (20 days).
# [2] = with glycerin, dipropylene glycol or 1,3-butylene glycol, polyol humectant content exceeding 10 wt %
structure (smiles),measurement,setting,value
"C[N+](C)(C)CC(O)CC(=O)[O-] (centres unmarked) [Carnitine, carnitine]",exfoliation effect,"pig skin; 5% carnitine, pH 7, concentration of glycerin higher than 10 wt % (FIG. 2)",0%
same,exfoliation activity,"pig skin; 5% carnitine, pH 7, with 10% or 12% glycerin, dipropylene glycol or 1,3-butylene glycol (FIG. 5)",decreased to the levels where human skin test is meaningless
same,Exfoliation ability %,"pig skin; carnitine 0.5 wt %, glycerin 0 wt %",61%
same,Exfoliation ability %,"pig skin; carnitine 0.5 wt %, glycerin 0.5 wt %",50%
same,Exfoliation ability %,"pig skin; carnitine 0.5 wt %, glycerin 1 wt %",18%
same,Exfoliation ability %,"pig skin; carnitine 0.5 wt %, glycerin 5 wt %",11%
same,Exfoliation ability %,"pig skin; carnitine 0.5 wt %, glycerin 10 wt %",0%
same,Exfoliation ability %,"pig skin; carnitine 5 wt %, glycerin 0 wt %",100%
same,Exfoliation ability %,"pig skin; carnitine 5 wt %, glycerin 0.1 wt %",89%
same,Exfoliation ability %,"pig skin; carnitine 5 wt %, glycerin 0.5 wt %",91%
same,Exfoliation ability %,"pig skin; carnitine 5 wt %, glycerin 1 wt %",55%
same,Exfoliation ability %,"pig skin; carnitine 5 wt %, glycerin 2 wt %",53%
same,Exfoliation ability %,"pig skin; carnitine 5 wt %, glycerin 3 wt %",30%
same,Exfoliation ability %,"pig skin; carnitine 5 wt %, glycerin 4 wt %",19%
same,Exfoliation ability %,"pig skin; carnitine 5 wt %, glycerin 5 wt %",12%
same,Exfoliation ability %,"pig skin; carnitine 5 wt %, glycerin 7 wt %",5%
same,Exfoliation ability %,"pig skin; carnitine 5 wt %, glycerin 10 wt %",4%
same,Exfoliation ability %,"pig skin; carnitine 5 wt %, glycerin 12 wt %",0%
same,Exfoliation ability %,"pig skin; carnitine 5 wt %, glycerin 15 wt %",0%
same,activity versus gluconolactone (PHA) or lactic acid (AHA) at pH 4,pig skin,comparable to or better than
same,exfoliation effect,pig skin; [2],0%
same,turnover time (TT100),[1],no significant difference
"N[C@@H](CO)C(=O)O [Serine, serine]",exfoliating effect,"pig skin; 5% serine with humectant mixtures (glycerin 1:DPG 1:1,3-BG 1) (FIG. 6)",decreased similarly
same,exfoliation effect,"pig skin; 5% serine, pH 6, concentration of glycerin 10% or higher (FIG. 1)",0%
same,exfoliation activity,"pig skin; 5% serine, pH 6, dipropylene glycol or 1,3-butylene glycol exceeding 10% (FIGS. 3 and 4)",decreased below that of water (negative control group)
same,activity versus gluconolactone (PHA) or lactic acid (AHA) at pH 4,pig skin,comparable to or better than
same,Exfoliation ability %,"pig skin; serine 0.5 wt %, glycerin 0 wt %",56%
same,Exfoliation ability %,"pig skin; serine 0.5 wt %, glycerin 0.5 wt %",53%
same,Exfoliation ability %,"pig skin; serine 0.5 wt %, glycerin 1 wt %",34%
same,Exfoliation ability %,"pig skin; serine 0.5 wt %, glycerin 5 wt %",19%
same,Exfoliation ability %,"pig skin; serine 0.5 wt %, glycerin 10 wt %",13%
same,Exfoliation ability %,"pig skin; serine 5 wt %, glycerin 0 wt %",91%
same,Exfoliation ability %,"pig skin; serine 5 wt %, glycerin 0.1 wt %",85%
same,Exfoliation ability %,"pig skin; serine 5 wt %, glycerin 0.5 wt %",86%
same,Exfoliation ability %,"pig skin; serine 5 wt %, glycerin 1 wt %",59%
same,Exfoliation ability %,"pig skin; serine 5 wt %, glycerin 2 wt %",47%
same,Exfoliation ability %,"pig skin; serine 5 wt %, glycerin 3 wt %",23%
same,Exfoliation ability %,"pig skin; serine 5 wt %, glycerin 4 wt %",26%
same,Exfoliation ability %,"pig skin; serine 5 wt %, glycerin 5 wt %",21%
same,Exfoliation ability %,"pig skin; serine 5 wt %, glycerin 7 wt %",16%
same,Exfoliation ability %,"pig skin; serine 5 wt %, glycerin 10 wt %",16%
same,Exfoliation ability %,"pig skin; serine 5 wt %, glycerin 12 wt %",−2%
same,Exfoliation ability %,"pig skin; serine 5 wt %, glycerin 15 wt %",−5%
same,exfoliation effect,pig skin; [2],0%
same,decrease of TT100% versus non-application group,"[1]; 5% serine, applied twice a day",6 days
same,TT100% (turnover time),"[1]; 5% serine, applied twice a day, non-application group 20 days (FIG. 13)",14 days
same,turnover time (TT100),[1],no significant difference
same,visual change after application for 10 days,[1]; serine alone at concentrations of 0.5% and 5% (FIG. 12),effective
same,visual change after application for 10 days,[1]; serine with glycerin concentration 10% or 50% (FIG. 12),no significant difference from the non-application group
same,TT100% (turnover time),[1]; serine with glycerin concentration 10% or 50% (FIG. 13),no significant difference from the non-application group
